The record followed here is US20210267239A1, “Process for Sanitizing and Preserving Foodstuffs and Beverages” (LANXESS Deutschland GmbH, priority 2018, published 2021).

Assay type in all cases: cell-based
One test concerns Candida krusei. Kind of test: MIC determination in RPMI-1640 growth medium (CLSI M27-A3). The following applies: Pichia kudriavzevii, 168 h, growth medium RPMI-1640, seeding 1000 cfu/ml, after one week, read-out: MIC (mg/l) after one week. As to the method: (§1) After one week, a proportion of the medium was tested for the presence of microorganisms and these tests were used to determine the MIC (minimum inhibitory concentration). Individual test substances: natamycin, mycosamine Test microbe: Candida krusei Substrate: growth medium Microbial seeding per ml of substrate: 1000 cfu/ml Synergism was ascertained according to the method described in Kull, F. C. et al.; Mixtures of quaternary ammonium compounds and long-chain fatty acids as antifungal agents. Applied Microbiology, 9, 538-541, 1961. The following relationships apply: QA/Qa+QB/Qb=SI Qa=concentration of substance A which is the MIC Qb=concentration of substance B which is the MIC QA=concentration of substance A in the concentration of A/B at which microbial growth is suppressed QB=concentration of substance B in the concentration of A/B at which microbial growth is suppressed SI=synergistic index […]

The subject of another test is Candida albicans. The description is as above. The following applies: 168 h, growth medium RPMI-1640, seeding 1000 cfu/ml, after one week, read-out: MIC (mg/l) after one week. Here is the method: as §1, with “of the growth medium was” for “of the medium was”, “microbe: Candida albicans Substrate: growth” for “microbe: Candida krusei Substrate: growth”
Test [1] concerns mixture of Saccharomyces cerevisiae, Zygosaccharomyces bailii, Penicillium carneum and Trichoderma virens. Nature of the test: MIC determination in contaminated iced tea, non-carbonated. The following applies: 168 h, mixed test microbes, 250 cfu/ml each, after one week, read-out: MIC (mg/l) after one week. Here is the method: as §1, with “mixture of Saccharomyces cerevisiae, Zygosaccharomyces bailii, Penicillium carneum and Trichoderma virens” for “Candida krusei”, “iced tea, non-carbonated” for “growth medium”, “250” for “1000”, “cfu/ml each of the test microbes listed above” for “cfu/ml”

A further test concerns Candida glabrata. Kind of test: MIC determination in RPMI-1640 growth medium (CLSI M27-A3). The following applies: Nakaseomyces glabratus, 168 h, growth medium RPMI-1640, seeding 1000 cfu/ml, after one week, read-out: MIC (mg/l) after one week. As to the method: as §1, with “glabrata” for “krusei”

Molecules are shown by their SMILES.

With `C[C@@H](O)[C@@H](O)[C@H](N)[C@H](O)C=O` [Mycosamine, 3-amino-3,6-dideoxymannose], the MIC was determined as 2 mg/L in the test on Candida krusei, 32 mg/L with Candida albicans, 0.75 mg/L in test [1] and 0.5 mg/L in the test with Candida glabrata.
On to `C[C@@H]1C/C=C/C=C/C=C/C=C/[C@H](O[C@@H]2O[C@H](C)[C@@H](O)[C@H](N)[C@@H]2O)C[C@@H]2O[C@](O)(C[C@@H](O)C[C@H]3O[C@@H]3/C=C/C(=O)O1)C[C@H](O)[C@H]2C(=O)O` [Natamycin, (8E,14E,16E,18E,20E)-(1R,3S,5R,7R,12R,22R,24S,25R,26S)-22-(3-amino-3,6-dideoxy-25-D-mannopyranosyloxy)-1,3,26-trihydroxy-12-methyl-10-oxo-6,11,28-trioxatricyclo[22.3.1.05,7]octacosa-8,14,16,18,20-pentaene-25-carboxylic acid], for which the MIC in the test on Candida krusei was 2 mg/L; with Candida albicans, 1 mg/L; in test [1], 4 mg/L; in the test on Candida glabrata, 1 mg/L.
